Data set [1] concerns Mycosphaerella arachidis (Cercospora arachidicola). As to the kind of experiment: Mycosphaerella arachidis (Cercospora arachidicola)/Liquid Culture (Early Leaf Spot). Format: cell-based. As to conditions: liquid culture, compared to untreated control. The essentials: (§1)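 First, the test compound in DMSO is placed in the wells. Next, potato dextrose broth seeded with conidia taken straight from cryogenic storage is added, and the culture is left to grow.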

The test system of the next data set is Phytophthora infestans. As to the kind of experiment: whole plant or invertebrate. Format: in vivo. As to conditions: in Solanum lycopersicum, foliar, read-out: control of Phytophthora infestans.
Data set [2] deals with Blumeria graminis f. sp. tritici (Erysiphe graminis f. sp. tritici). As to the kind of experiment: Blumeria graminis f. sp. tritici/Wheat/Leaf Disc Preventative (Powdery Mildew on Wheat). Format: in vivo. As to conditions: foliar, wheat leaf disc preventative, compared to untreated control. The essentials:
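Wheat cv. Kanzler leaf segments on agar sprayed with formulated compound, inoculated with powdery mildew 1 day later and held at 20° C, 60% rh (24 h dark, then 12 h light/12 h dark). Percent disease control versus untreated scored 6-8 days after application.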

Another data set relates to Pyrenophora teres. As to the kind of experiment: Pyrenophora teres/Barley/Leaf Disc Preventative (Net Blotch). Format: in vivo. As to conditions: foliar, 200 ppm, barley leaf disc preventative, compared to untreated control, read-out: control of Pyrenophora teres. The source says: Barley leaf segments cv. Hasso are placed on agar in a multiwell plate (24-well format) and sprayed with the formulated test compound diluted in water. The leaf segments are inoculated with a spore suspension of the fungus 2 days after application. […] The data are presented as the percentage of disease control of each compound for the biological tests against G. lagenarium (Example B3), P. recondita preventative (Example B13), P. teres (Example B15) and M. graminicola (Example B19) as described above. The testing rates of each biological test is specifically described in table C1 below.

Data set [3] concerns Monographella nivalis (Microdochium nivale). As to the kind of experiment: Monographella nivalis (Microdochium nivale)/Liquid Culture (Foot Rot Cereals). The class given is cell-based. As to conditions: liquid culture, compared to untreated control. Put shortly:
as §1

Data set [4] deals with Puccinia recondita f. sp. tritici. As to the kind of experiment: Puccinia recondita f. sp. tritici/Wheat/Leaf Disc Curative (Brown Rust). Format: in vivo. As to conditions: foliar, wheat leaf disc curative, compared to untreated control. The essentials:
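Curative leaf-disc test on wheat cv. Kanzler segments on agar, spore-inoculated and kept dark at 19° C, 75% rh; formulated compound in water applied 1 day after inoculation. Incubated at 19° C, 75% rh, 12 h light/12 h dark; percent disease control versus untreated scored 6-8 days after application.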

In data set [5] the test system is Glomerella lagenarium (Colletotrichum lagenarium). As to the kind of experiment: Glomerella lagenarium (Colletotrichum lagenarium)/Liquid Culture (Anthracnose). Format: cell-based. As to conditions: Colletotrichum orbiculare, liquid culture, compared to untreated control.
Data set [6] deals with Phaeosphaeria nodorum (Septoria nodorum). As to the kind of experiment: Phaeosphaeria nodorum (Septoria nodorum)/Wheat/Leaf Disc Preventative (Glume Blotch). The class given is in vivo. As to conditions: Parastagonospora nodorum, foliar, wheat leaf disc preventative, compared to untreated control. Put shortly:
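Wheat cv. Kanzler leaf discs on agar were sprayed with formulated compound diluted in water and inoculated with P. nodorum spores 2 days later. Discs kept at 20 °C, 75% rh, 12 h light/dark; percent disease control versus untreated scored 5–7 days after application.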

For data set [7], the system named is Mycosphaerella graminicola (Septoria tritici). As to the kind of experiment: Mycosphaerella graminicola (Septoria tritici)/Liquid Culture (Septoria Blotch). The class given is cell-based. As to conditions: Zymoseptoria tritici; 20 ppm; liquid culture; compared to untreated control. The essentials: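 Conidia from cryogenic storage mixed into potato dextrose broth and added to microtiter wells already holding DMSO solutions of test compound. Activity expressed as percentage disease control.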

The next data set relates to Plasmopara viticola. As to the kind of experiment: whole plant or invertebrate. Format: in vivo. As to conditions: foliar, read-out: control of Plasmopara viticola.
Data set [8] concerns Puccinia recondita f. sp. tritici. As to the kind of experiment: Puccinia recondita f. sp. tritici/Wheat/Leaf Disc Preventative (Brown Rust). Format: in vivo. As to conditions: foliar, 200 ppm, wheat leaf disc preventative, compared to untreated control, read-out: control of Puccinia recondita f. sp. tritici.
Data set [9] has as its system Magnaporthe grisea (Pyricularia oryzae). As to the kind of experiment: whole plant or invertebrate. Format: in vivo. As to conditions: foliar, read-out: control of Magnaporthe grisea.
For data set [10], the system named is Botryotinia fuckeliana (Botrytis cinerea). As to the kind of experiment: Botryotinia fuckeliana (Botrytis cinerea)/Liquid Culture (Gray Mould). Format: cell-based. As to conditions: liquid culture, compared to untreated control. Here is the method: Conidia of the fungus from cryogenic storage are directly mixed into nutrient broth (Vogels broth). After placing a (DMSO) solution of test compound into a microtiter plate (96-well format), the nutrient broth containing the fungal spores is added.

Structures are written as SMILES.

What is called inhibition of growth is the percentage by which the read-out fell short of the control. Consider `C=C(C)c1cnn(-c2ccc(C)c(O/C(=C\OC)C(=O)OC)c2)n1` [Compound F-11, methyl (Z)-2-[5-(4-isopropenyltriazol-2-yl)-2-methyl-phenoxy]-3-methoxy-prop-2-enoate], for which the inhibition of growth at 20 ppm in [1], in [3], in [5] and in data set [7] was ≥ 80% each time. Further, the pest or weed control at 200 ppm (in the data set with Phytophthora infestans; in data set [2]; with Pyrenophora teres; in data set [4]; in data set [6]; in the data set on Plasmopara viticola) was ≥ 80% throughout. Moreover, the pest or weed control at 200 ppm in [8] and in data set [9] was ≥ 80% throughout.

What is called melting point is the temperature of the solid-liquid transition. In turn, `CO/C=C(\Oc1cc(-n2cc(C)c(C(F)(F)F)n2)ccc1C)C(=O)OC` [Compound E-75, methyl (Z)-3-methoxy-2-[2-methyl-5-[4-methyl-3-(trifluoromethyl)pyrazol-1-yl]phenoxy]prop-2-enoate] registered a melting point of 131 to 134 °C. Also, in data set [1], the inhibition of growth at 20 ppm was ≥ 80%. Also, in [2], the pest or weed control at 200 ppm was ≥ 80%. The pest or weed control at 200 ppm in the data set with Pyrenophora teres was ≥ 80%. Moreover, in data set [10], the inhibition of growth at 20 ppm is ≥ 80%. The inhibition of growth at 20 ppm in [3] was ≥ 80%. Besides, the pest or weed control at 200 ppm in data set [6] was ≥ 80%. Further, the inhibition of growth at 20 ppm in [7] is ≥ 80%. Moreover, in the data set on Plasmopara viticola, the pest or weed control at 200 ppm is ≥ 80%. Moreover, the pest or weed control at 200 ppm in data set [8] was ≥ 80%.

On to `CO/C=C(\Oc1cc(-n2cc(Cl)cn2)ccc1C)C(=O)OC` [Compound E-54, methyl (Z)-2-[5-(4-chloropyrazol-1-yl)-2-methyl-phenoxy]-3-methoxy-prop-2-enoate], for which the inhibition of growth at 20 ppm in data set [1], in data set [10], in [3], in data set [5] and in [7] was ≥ 80% each time. In addition, the pest or weed control at 200 ppm (with Phytophthora infestans; in data set [2]; in the data set on Pyrenophora teres; in data set [6]; in the data set with Plasmopara viticola; in [8]) was ≥ 80% throughout.

In turn, `CO/C=C(\Oc1cc(-n2ccc(C(F)(F)Cl)n2)ccc1C)C(=O)OC` [Compound E-118, methyl (Z)-2-[5-[3-[chloro(difluoro)methyl]pyrazol-1-yl]-2-methyl-phenoxy]-3-methoxy-prop-2-enoate] came in with a melting point of 146 to 148 °C. For the same compound, in data set [1], the inhibition of growth at 20 ppm is ≥ 80%. Also, the pest or weed control at 200 ppm in the data set with Phytophthora infestans is ≥ 80%. The pest or weed control at 200 ppm in data set [2] was ≥ 80%. The pest or weed control at 200 ppm with Pyrenophora teres is ≥ 80%. In data set [3], the inhibition of growth at 20 ppm was ≥ 80%. Also, the pest or weed control at 200 ppm in data set [4] is ≥ 80%. For the same compound, the inhibition of growth at 20 ppm in data set [5] was ≥ 80%. Further, the pest or weed control at 200 ppm in data set [6] is ≥ 80%. Moreover, the inhibition of growth at 20 ppm in data set [7] is ≥ 80%. Further, the pest or weed control at 200 ppm in the data set on Plasmopara viticola is ≥ 80%. In addition, the pest or weed control at 200 ppm in data set [8] is ≥ 80%. Further, the pest or weed control at 200 ppm in [9] is ≥ 80%.

`CO/C=C(\Oc1cc(-n2ccc(I)n2)ccc1C)C(=O)OC` [Compound E-78, methyl (Z)-2-[5-(3-iodopyrazol-1-yl)-2-methyl-phenoxy]-3-methoxy-prop-2-enoate]: the melting point is 156 to 159 °C. Also, the inhibition of growth at 20 ppm in data set [1] was ≥ 80%. Further, in the data set with Phytophthora infestans, the pest or weed control at 200 ppm is ≥ 80%. In [2], the pest or weed control at 200 ppm was ≥ 80%. Also, the pest or weed control at 200 ppm with Pyrenophora teres is ≥ 80%. Further, the inhibition of growth at 20 ppm in data set [3] is ≥ 80%. Also, in [5], the inhibition of growth at 20 ppm is ≥ 80%. For the same compound, the pest or weed control at 200 ppm in data set [6] is ≥ 80%. In data set [7], the inhibition of growth at 20 ppm is ≥ 80%. For the same compound, in the data set with Plasmopara viticola, the pest or weed control at 200 ppm was ≥ 80%. Moreover, in [8], the pest or weed control at 200 ppm was ≥ 80%. The pest or weed control at 200 ppm in data set [9] is ≥ 80%.

With `CO/C=C(\Oc1cc(-n2ccc(C3CCCCC3)n2)c(F)cc1C)C(=O)OC` [Compound E-114, methyl (Z)-2-[5-(3-cyclohexylpyrazol-1-yl)-4-fluoro-2-methyl-phenoxy]-3-methoxy-prop-2-enoate], the inhibition of growth at 20 ppm in data set [1], in [3], in [5] and in data set [7] was ≥ 80% throughout. Further, the pest or weed control at 200 ppm (in the data set on Phytophthora infestans; in [2]; in the data set with Pyrenophora teres; in data set [4]; in [6]; in the data set on Plasmopara viticola) was ≥ 80% each time. Further, the pest or weed control at 200 ppm in [8] and in [9] was ≥ 80% throughout.

As to `CCON=C(C)c1cnn(-c2ccc(C)c(O/C(=C\OC)C(=O)OC)c2)n1` [Compound F-12, methyl (Z)-2-[5-[4-(N-ethoxy-C-methyl-carbonimidoyl)triazol-2-yl]-2-methyl-phenoxy]-3-methoxy-prop-2-enoate], the melting point fell in the range of 113 to 116 °C. Also, in data set [1], the inhibition of growth at 20 ppm was ≥ 80%. The pest or weed control at 200 ppm in the data set with Phytophthora infestans is ≥ 80%. The pest or weed control at 200 ppm in data set [2] is ≥ 80%. In the data set with Pyrenophora teres, the pest or weed control at 200 ppm was ≥ 80%. The inhibition of growth at 20 ppm in data set [3] was ≥ 80%. Moreover, the pest or weed control at 200 ppm in data set [4] is ≥ 80%. Further, the inhibition of growth at 20 ppm in data set [5] is ≥ 80%. In data set [6], the pest or weed control at 200 ppm is ≥ 80%. The inhibition of growth at 20 ppm in data set [7] is ≥ 80%. Also, the pest or weed control at 200 ppm in the data set on Plasmopara viticola is ≥ 80%. Besides, the pest or weed control at 200 ppm in data set [8] is ≥ 80%. Also, the pest or weed control at 200 ppm in data set [9] was ≥ 80%.

The compound `CO/C=C(\Oc1cc(-n2cc(Cl)c(C3CCCCC3)n2)ccc1C)C(=O)OC` [Compound E-112, methyl (Z)-2-[5-(4-chloro-3-cyclohexyl-pyrazol-1-yl)-2-methyl-phenoxy]-3-methoxy-prop-2-enoate] returned a melting point of 150 to 152 °C. For the same compound, the inhibition of growth at 20 ppm in [1] was ≥ 80%. The pest or weed control at 200 ppm in the data set on Pyrenophora teres was ≥ 80%. In addition, the inhibition of growth at 20 ppm in [3] was ≥ 80%. Besides, in [4], the pest or weed control at 200 ppm was ≥ 80%. In addition, in data set [5], the inhibition of growth at 20 ppm is ≥ 80%. Moreover, the pest or weed control at 200 ppm in [6] was ≥ 80%. In addition, the pest or weed control at 200 ppm in the data set on Plasmopara viticola is ≥ 80%. Further, the pest or weed control at 200 ppm in data set [9] is ≥ 80%.

For the origin of these results see patent publication US12043600B2, “Microbiocidal compounds” (SYNGENTA CROP PROTECTION AG, priority 2018, dated 2024).
